pIC50: −log10 of the molar value. Where only a bound is given, the exact number is not on record here.

This passage reports IC50 results from patent publication US8471005B2 (Cephalon, Inc., priority 2008, dated 2013).

In one experiment the target is T1, ALK (Homo sapiens, UniProt Q9UM73).
T1 construct: host or cells: baculovirus expression system
As to the kind of experiment: ALK Kinase Assay (ELISA/TRF, PLC-γ substrate). The experiment is classed as biochemical. The following applies: ALK kinase inhibition, 1 μM ATP; read-out: ALK Potency. The method in brief: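 PLC-γ coat 10 μg/mL in TBS; ALK 30 ng/ml added to start; 37° C, 15 min; Eu-N1 PT66 antibody detection (TRF). IC50: % inhibition vs log10 [cpd], variable-slope sigmoidal fit.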
For orientation: An ELISA detects its analyte on a solid surface through an enzyme-linked reagent.

Another experiment deals with T2, JAK2 (Homo sapiens, UniProt O60674).
T2 construct: host or cells: baculovirus expression system
Kind of experiment: Recombinant Human JAK2 Kinase Assay (TRF). The experiment is classed as biochemical. The following applies: JAK2 kinase inhibition, 0.2 μM ATP; read-out: JAK2 Potency. In a few lines:
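TRF read-out: Eu-N1 PY100 anti-phosphotyrosine antibody detects product. Enzyme is baculovirus-expressed JAK2 at 15 ng/ml; substrate is a biotinyl 15-mer peptide bound to Neutravidin-coated wells. Buffer 20 mM HEPES pH 7.2, 0.2 μM ATP, 1 mM MnCl2, 0.1% BSA, 2.5% DMSO final; 20 min, RT.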

T1 sequence (Q9UM73 19-1620): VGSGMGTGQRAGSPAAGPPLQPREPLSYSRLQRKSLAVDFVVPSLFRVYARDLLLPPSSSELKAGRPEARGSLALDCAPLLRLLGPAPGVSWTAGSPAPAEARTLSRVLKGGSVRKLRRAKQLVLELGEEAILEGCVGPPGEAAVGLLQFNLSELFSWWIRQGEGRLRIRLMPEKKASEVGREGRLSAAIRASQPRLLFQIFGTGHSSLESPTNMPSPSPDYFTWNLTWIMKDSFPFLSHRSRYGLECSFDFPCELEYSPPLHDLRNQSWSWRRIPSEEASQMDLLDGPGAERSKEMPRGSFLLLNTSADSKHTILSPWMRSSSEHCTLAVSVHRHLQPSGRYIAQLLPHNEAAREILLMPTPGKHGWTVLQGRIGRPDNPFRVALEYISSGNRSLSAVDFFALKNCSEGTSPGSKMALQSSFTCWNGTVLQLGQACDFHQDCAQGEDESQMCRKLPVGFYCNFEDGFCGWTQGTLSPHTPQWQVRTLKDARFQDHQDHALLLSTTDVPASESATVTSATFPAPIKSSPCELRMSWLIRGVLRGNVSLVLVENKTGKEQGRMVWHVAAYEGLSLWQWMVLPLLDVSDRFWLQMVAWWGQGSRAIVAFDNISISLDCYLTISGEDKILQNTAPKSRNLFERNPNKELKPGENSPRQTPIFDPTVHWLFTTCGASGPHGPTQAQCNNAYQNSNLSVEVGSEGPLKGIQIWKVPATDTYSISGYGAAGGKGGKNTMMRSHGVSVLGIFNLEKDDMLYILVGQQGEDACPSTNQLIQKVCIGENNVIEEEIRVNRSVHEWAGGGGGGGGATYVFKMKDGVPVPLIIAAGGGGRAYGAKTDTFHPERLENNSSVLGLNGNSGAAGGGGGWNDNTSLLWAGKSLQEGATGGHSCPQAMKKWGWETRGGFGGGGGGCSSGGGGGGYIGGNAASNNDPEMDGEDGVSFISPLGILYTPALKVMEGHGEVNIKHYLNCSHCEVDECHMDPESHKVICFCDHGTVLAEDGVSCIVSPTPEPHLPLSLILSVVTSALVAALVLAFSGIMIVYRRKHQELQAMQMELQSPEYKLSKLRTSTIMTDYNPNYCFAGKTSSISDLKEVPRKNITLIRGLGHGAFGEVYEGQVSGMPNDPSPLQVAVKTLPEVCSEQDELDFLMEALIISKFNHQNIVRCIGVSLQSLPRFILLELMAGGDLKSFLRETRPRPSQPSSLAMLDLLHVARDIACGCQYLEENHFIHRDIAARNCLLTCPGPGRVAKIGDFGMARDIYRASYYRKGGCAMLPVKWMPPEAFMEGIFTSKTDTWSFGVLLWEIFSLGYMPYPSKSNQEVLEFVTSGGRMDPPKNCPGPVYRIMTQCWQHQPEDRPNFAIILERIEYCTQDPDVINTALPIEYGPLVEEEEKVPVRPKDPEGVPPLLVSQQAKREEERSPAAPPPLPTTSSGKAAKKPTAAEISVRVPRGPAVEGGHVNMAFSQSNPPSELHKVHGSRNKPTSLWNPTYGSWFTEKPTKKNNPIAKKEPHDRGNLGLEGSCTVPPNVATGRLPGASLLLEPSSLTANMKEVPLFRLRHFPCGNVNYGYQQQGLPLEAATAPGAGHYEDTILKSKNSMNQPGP
T2 sequence (O60674 whole entry): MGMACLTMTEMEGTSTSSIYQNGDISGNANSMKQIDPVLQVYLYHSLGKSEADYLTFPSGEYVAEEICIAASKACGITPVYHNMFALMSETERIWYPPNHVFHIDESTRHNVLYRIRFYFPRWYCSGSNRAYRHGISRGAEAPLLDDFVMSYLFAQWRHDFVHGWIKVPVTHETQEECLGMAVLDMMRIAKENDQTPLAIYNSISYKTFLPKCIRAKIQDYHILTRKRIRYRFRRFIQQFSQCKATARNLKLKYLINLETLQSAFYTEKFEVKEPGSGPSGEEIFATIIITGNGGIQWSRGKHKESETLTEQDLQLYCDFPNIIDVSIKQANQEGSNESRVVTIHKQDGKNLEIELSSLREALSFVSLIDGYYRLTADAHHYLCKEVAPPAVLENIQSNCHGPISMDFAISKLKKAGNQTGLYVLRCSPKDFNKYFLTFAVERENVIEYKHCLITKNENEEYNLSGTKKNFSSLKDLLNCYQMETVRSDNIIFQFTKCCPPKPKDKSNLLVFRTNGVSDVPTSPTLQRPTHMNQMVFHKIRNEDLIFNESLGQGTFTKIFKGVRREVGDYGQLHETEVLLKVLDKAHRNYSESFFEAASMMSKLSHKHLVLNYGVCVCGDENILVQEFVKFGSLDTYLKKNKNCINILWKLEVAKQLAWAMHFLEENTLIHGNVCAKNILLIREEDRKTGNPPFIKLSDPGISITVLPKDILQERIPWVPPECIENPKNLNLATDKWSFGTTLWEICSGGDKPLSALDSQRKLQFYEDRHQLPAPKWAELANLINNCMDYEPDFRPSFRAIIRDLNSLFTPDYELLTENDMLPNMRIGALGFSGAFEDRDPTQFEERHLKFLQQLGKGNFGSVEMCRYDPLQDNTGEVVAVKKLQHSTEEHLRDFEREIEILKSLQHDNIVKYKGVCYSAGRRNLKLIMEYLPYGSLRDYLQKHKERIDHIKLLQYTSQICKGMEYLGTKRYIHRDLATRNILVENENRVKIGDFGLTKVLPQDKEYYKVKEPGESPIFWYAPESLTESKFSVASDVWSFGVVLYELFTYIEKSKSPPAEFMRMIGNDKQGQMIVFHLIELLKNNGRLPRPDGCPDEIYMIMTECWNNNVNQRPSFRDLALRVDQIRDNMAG

In the case of `CN1CCN(C)C(c2cccc(Nc3ncc4ccc(-c5cccc(S(=O)(=O)NC(C)(C)C)c5)n4n3)c2)C1=O` (centres unmarked) [Example 1077, N-tert-Butyl-3-{2-[3-(1,4-dimethyl-3-oxo-piperazin-2-yl)-phenylamino]-pyrrolo[2,1-f][1,2,4]triazin-7-yl}-benzenesulfonamide], the pIC50 on ALK is 5.00 to 6.00; at JAK2, above 7.00.
For `CN1CCN(C)C(c2cccc(Nc3ncc4ccc(-c5cccc(S(=O)(=O)N6CCOCC6)c5)n4n3)c2)C1=O` (centres unmarked) [Example 1078, 1,4-Dimethyl-3-(3-{7-[3-(morpholine-4-sulfonyl)-phenyl]-pyrrolo[2,1-f][1,2,4]triazin-2-ylamino}-phenyl)-piperazin-2-one] the same measures were below 5.00 and above 7.00.
In the case of `CN1CCN(C)C(c2cccc(Nc3ncc4ccc(-c5cccc(S(=O)(=O)N6CCCC6)c5)n4n3)c2)C1=O` (centres unmarked) [Example 1079, 1,4-Dimethyl-3-(3-{7-[3-(pyrrolidine-1-sulfonyl)-phenyl]-pyrrolo[2,1-f][1,2,4]triazin-2-ylamino}-phenyl)-piperazin-2-one], the pIC50 at ALK was 5.00 to 6.00; on JAK2, above 7.00.
For `CN1CCN(C)C(c2cccc(Nc3ncc4ccc(-c5cccc(S(C)(=O)=O)c5)n4n3)c2)C1=O` (centres unmarked) [Example 1080, 3-{3-[7-(3-Methanesulfonyl-phenyl)-pyrrolo[2,1-f][1,2,4]triazin-2-ylamino]-phenyl}-1,4-dimethyl-piperazin-2-one], in that order: 5.00 to 6.00 and above 7.00.
For `COc1ccc(-c2ccc3cnc(Nc4cccc(C5C(=O)N(C)CCN5C)c4)nn23)cn1` (centres unmarked) [Example 1081, 3-{3-[7-(6-Methoxy-pyridin-3-yl)-pyrrolo[2,1-f][1,2,4]triazin-2-ylamino]-phenyl}-1,4-dimethyl-piperazin-2-one], in that order: below 5.00 and above 7.00.
For `COc1ccccc1-c1ccc2cnc(Nc3cccc(C4C(=O)N(C)CCN4C)c3)nn12` (centres unmarked) [Example 1082, 3-{3-[7-(2-Methoxy-phenyl)-pyrrolo[2,1-f][1,2,4]triazin-2-ylamino]-phenyl}-1,4-dimethyl-piperazin-2-one] the same measures were 5.00 to 6.00 and above 7.00.
For the compound `CN1CCN(C)C(c2cccc(Nc3ncc4ccc(-c5ccccc5N(C)S(C)(=O)=O)n4n3)c2)C1=O` (centres unmarked) [Example 1083, N-(2-{2-[3-(1,4-Dimethyl-3-oxo-piperazin-2-yl)-phenylamino]-pyrrolo[2,1-f][1,2,4]triazin-7-yl}-phenyl)-N-methyl-methanesulfonamide], the pIC50 at ALK is 5.00 to 6.00; on JAK2, above 7.00.
Consider `CN1CCN(C)C(c2cccc(Nc3ncc4ccc(-c5ccc(S(C)(=O)=O)cc5)n4n3)c2)C1=O` (centres unmarked) [Example 1084, 3-{3-[7-(4-Methanesulfonyl-phenyl)-pyrrolo[2,1-f][1,2,4]triazin-2-ylamino]-phenyl}-1,4-dimethyl-piperazin-2-one], for which the results for the pIC50 on ALK and on JAK2 were below 5.00 and above 7.00, respectively.
For `CC(C)(C)NS(=O)(=O)c1cccc(-c2ccc3cnc(Nc4ccc(-c5cccnc5)cc4)nn23)c1` [Example 1085, N-tert-Butyl-3-[2-(4-pyridin-3-yl-phenylamino)-pyrrolo[2,1-f][1,2,4]triazin-7-yl]-benzenesulfonamide] the same measures were below 5.00 and above 7.00.
For `O=S(=O)(c1cccc(-c2ccc3cnc(Nc4ccc(-c5cccnc5)cc4)nn23)c1)N1CCCC1` [Example 1086, (4-Pyridin-3-yl-phenyl)-{7-[3-(pyrrolidine-1-sulfonyl)-phenyl]-pyrrolo[2,1-f][1,2,4]triazin-2-yl}-amine], in that order: below 5.00 and above 7.00.
For `CS(=O)(=O)c1cccc(-c2ccc3cnc(Nc4ccc(-c5cccnc5)cc4)nn23)c1` [Example 1087, [7-(3-Methanesulfonyl-phenyl)-pyrrolo[2,1-f][1,2,4]triazin-2-yl]-(4-pyridin-3-yl-phenyl)-amine] the same measures were 5.00 to 6.00 and above 7.00.
As to `COc1ccc(-c2ccc3cnc(Nc4ccc(-c5cccnc5)cc4)nn23)cn1` [Example 1088, [7-(6-Methoxy-pyridin-3-yl)-pyrrolo[2,1-f][1,2,4]triazin-2-yl]-(4-pyridin-3-yl-phenyl)-amine], the pIC50 at ALK was 5.00 to 6.00; at JAK2 it was above 7.00.
For `CS(=O)(=O)c1ccc(-c2ccc3cnc(Nc4ccc(-c5cccnc5)cc4)nn23)cc1` [Example 1089, [7-(4-Methanesulfonyl-phenyl)-pyrrolo[2,1-f][1,2,4]triazin-2-yl]-(4-pyridin-3-yl-phenyl)-amine] the same measures were 5.00 to 6.00 and above 7.00.
For `O=S(=O)(c1cccc(-c2ccc3cnc(Nc4ccc(-c5cccnc5)cc4)nn23)c1)N1CCOCC1` [Example 1090, {7-[3-(Morpholine-4-sulfonyl)-phenyl]-pyrrolo[2,1-f][1,2,4]triazin-2-yl}-(4-pyridin-3-yl-phenyl)-amine], the pIC50 at ALK was 5.00 to 6.00; on JAK2, above 7.00.
For `COc1ccccc1-c1ccc2cnc(Nc3ccc(-c4cccnc4)cc3)nn12` [Example 1091, [7-(2-Methoxy-phenyl)-pyrrolo[2,1-f][1,2,4]triazin-2-yl]-(4-pyridin-3-yl-phenyl)-amine] the same measures were 5.00 to 6.00 and above 7.00.
For `CN(c1ccccc1-c1ccc2cnc(Nc3ccc(-c4cccnc4)cc3)nn12)S(C)(=O)=O` [Example 1092, N-Methyl-N-{2-[2-(4-pyridin-3-yl-phenylamino)-pyrrolo[2,1-f][1,2,4]triazin-7-yl]-phenyl}-methanesulfonamide], in that order: 6.00 to 7.00 and above 7.00.
Turning to `COc1ccccc1-c1ccc2cnc(Nc3ccc(OCCN4CCOCC4)cc3)nn12` [Example 1101, [7-(2-Methoxy-phenyl)-pyrrolo[2,1-f][1,2,4]triazin-2-yl]-[4-(2-morpholin-4-yl-ethoxy)-phenyl]-amine], the pIC50 at ALK and on JAK2 was above 7.00 in each case.
As for `COc1ccc(-c2ccc3cnc(Nc4ccc(N5CCC(CO)CC5)cc4)nn23)cn1` [Example 1102, (1-{4-[7-(6-Methoxy-pyridin-3-yl)-pyrrolo[2,1-f][1,2,4]triazin-2-ylamino]-phenyl}-piperidin-4-yl)-methanol], the pIC50 on ALK was 6.00 to 7.00; at JAK2, above 7.00.
For `COc1ccc(-c2ccc3cnc(Nc4ccc(OCCN5CCOCC5)cc4)nn23)cn1` [Example 1103, [7-(6-Methoxy-pyridin-3-yl)-pyrrolo[2,1-f][1,2,4]triazin-2-yl]-[4-(2-morpholin-4-yl-ethoxy)-phenyl]-amine], in that order: 6.00 to 7.00 and above 7.00.
For `COc1ccc(-c2ccc3cnc(Nc4ccc(N5CCN(CCO)CC5)cc4)nn23)cn1` [Example 1104, 2-(4-{4-[7-(6-Methoxy-pyridin-3-yl)-pyrrolo[2,1-f][1,2,4]triazin-2-ylamino]-phenyl}-piperazin-1-yl)-ethanol], in that order: 6.00 to 7.00 and above 7.00.
For `COc1ccc(-c2ccc3cnc(Nc4ccc(N5CCOCC5)cc4)nn23)cn1` [Example 1105, [7-(6-Methoxy-pyridin-3-yl)-pyrrolo[2,1-f][1,2,4]triazin-2-yl]-(4-morpholin-4-yl-phenyl)-amine], in that order: 5.00 to 6.00 and above 7.00.
For the compound `COc1ccc(-c2ccc3cnc(Nc4ccc(N5CCOCC5)nc4)nn23)cn1` [Example 1106], the pIC50 was 5.00 to 6.00 on ALK and above 7.00 at JAK2.
For `COc1ccccc1-c1c(C)c(C)c2cnc(Nc3ccc(N4CCN(C)CC4)cc3)nn12` [Example 1107] the same measures were above 7.00 and above 7.00.
For `COc1ccccc1-c1ccc2cnc(Nc3ccc(N4CCN(C)CC4)nc3)nn12` [Example 1108, [7-(2-Methoxy-phenyl)-pyrrolo[2,1-f][1,2,4]triazin-2-yl]-[6-(4-methyl-piperazin-1-yl)-pyridin-3-yl]-amine], in that order: 6.00 to 7.00 and above 7.00.
For `COc1ccc(-c2ccc3cnc(Nc4ccc(N5CCN(C)CC5)nc4)nn23)cn1` [Example 1109, [7-(6-Methoxy-pyridin-3-yl)-pyrrolo[2,1-f][1,2,4]triazin-2-yl]-[6-(4-methyl-piperazin-1-yl)-pyridin-3-yl]-amine], in that order: 6.00 to 7.00 and above 7.00.
For the compound `CN1CCN(c2ccc(Nc3ncc4ccc(-c5ccc(S(C)(=O)=O)cc5)n4n3)cn2)CC1` [Example 1110, [7-(4-Methanesulfonyl-phenyl)-pyrrolo[2,1-f][1,2,4]triazin-2-yl]-[6-(4-methyl-piperazin-1-yl)-pyridin-3-yl]-amine], the results for the pIC50 at ALK and at JAK2 were 6.00 to 7.00 and above 7.00, respectively.
For `COc1ccccc1-c1ccc2cnc(Nc3ccn(CC(=O)N4CCOCC4)n3)nn12` [Example 1111, 2-{3-[7-(2-Methoxy-phenyl)-pyrrolo[2,1-f][1,2,4]triazin-2-ylamino]-pyrazol-1-yl}-1-morpholin-4-yl-ethanone] the same measures were 6.00 to 7.00 and above 7.00.
For `COc1ccc(-c2ccc3cnc(Nc4ccn(CC(=O)N5CCOCC5)n4)nn23)cn1` [Example 1112, 2-{3-[7-(6-Methoxy-pyridin-3-yl)-pyrrolo[2,1-f][1,2,4]triazin-2-ylamino]-pyrazol-1-yl}-1-morpholin-4-yl-ethanone], in that order: below 5.00 and above 7.00.
